Results reported in patent US12473308B2, “Luminescent silafluorene and germafluorene compounds” (The Curators Of The University Of Missouri, priority 2019, dated 2025).
“Also recorded” adds a separate entry of the source.

Columns and labels:
[1] = Absorption and emission in CH2Cl2 solution and in the solid-state; format: physicochemical
Text: (§1) These new compounds (3Si/3Ge through 8Si %8Ge) show a strong absorption band in CH2Cl2 solution in the region of 371-394 nm (log ε values ranged from 4.25-5.23) and emission maxima in the region of 401-452 nm. The quantum efficiencies determined from solution samples containing the silafluorenes 3Si-8Si were high (0.80-0.87) and the related germafluorenes 3Ge-8Ge had slightly lower values between 0.64-0.83. […] The solid-state quantum yields have been measured for several of the sila- and germafluorenes. The solid-state quantum yields for 7 compounds have been measured and the values range from 0.14 to 0.91 with the highest values for compounds 5Ge […] and 6Ge (0.81). Additional quantum yield measurements both in solution and in the solid-state are made for other compounds shown in Scheme 2 (FIG. 2).

[2] = Quantum yield in aqueous solution (Tris) and in the presence of surfactants; format: physicochemical; details: for φTX (quantum yield): 0.6 mM TX-100; for φSBDS (quantum yield): 10 mM SDBS; for φCTAB (quantum yield): 20 mM CTAB; for φCHAPS (quantum yield): 25 mM CHAPS; for φSDS (quantum yield): 30 mM SDS; for φTris (quantum yield): aqueous solution, Tris, no surfactant
Method: (§2) Quantum yields were collected for these compounds in aqueous solution and in the presence of the aforementioned surfactants and the data are shown in Table 2. Quantum yields in the presence of surfactants are markedly higher than in their absence. In the presence of detergents, the quantum yield is recovered to near perfect quantum efficiency.
(§3) The surfactants are 0.6 mM TX-100, 25 mM CHAPS, 20 mM CTAB, 30 mM SDS, and 10 mM SDBS. ExpiCHO cells were stained with 10 μM 3Si for 15 minutes. Experimental details include Gains: 762; Digital gains: 2.3; Pinhole: 1 AU; and 2% Laser intensity.

[3] = Fluorescence change upon addition of detergent Triton X-100; details: for spectral change when Triton X-100 is added: neutral detergent Triton X-100
Method: Non-denaturing detergents, common proxies for membranes and lipids, were added to each compound. […] Moreover, the degree of enhancement is very sensitive to the aggregation state of the detergent: enhancement is more dramatic at concentrations at which the detergents are known to form micellar aggregates (critical micelle concentration).
Detergents enhance fluorescence. Triton X-100 (TX100) was added to each metallafluorene at concentrations below and above TX-100's CMC (0.3 mM), and fluorescence was measured (FIGS. 31A, 31B, and 32).
Non-denaturing detergents, common proxies for membranes and lipids, were added to each compound. […] Moreover, the degree of enhancement is very sensitive to the aggregation state of the detergent: enhancement is more dramatic at concentrations at which the detergents are known to form micellar aggregates (i.e. the critical micelle concentration).

[4] = Quantum yield in CH2Cl2 (DCM) solution; format: physicochemical
Text: as §1
The silafluorenes show intense fluorescence both in solution and in the solid-state (FIG. 11). The quantum yield range in CH2Cl2 solution is 0.80-0.89 for several silafluorenes studied to date.
as §2

[5] = Solubility in DMSO and in aqueous solution; format: physicochemical; details: for solubility in aqueous solution: aqueous solutions / aqueous buffer, diluted from DMSO
Text: Studies have been conducted herein for a series of silafluorenes with a broad range of alkynyl substituent groups: 3Si, 4Si, 7Si, […], 9Si, and 11Si, and 13Si. […] This provides a tunability to the optical behavior that is useful for bioimaging.
This provides a tunability to the optical behavior that is useful for imaging (FIG. 40).

[6] = tested on: ExpiCHO cells; assay: Fluorescence staining of CHO cells; format: cell-based; details: 10 μM, 15 minutes
Method: as §3

[7] = Solid-state quantum yield; format: physicochemical
Text: as §1

[8] = tested on: calf thymus (mixed sequence) DNA; assay: Spectroscopic DNA binding study; details: aqueous buffer, calf thymus DNA added
[9] = tested on: yeast cells (S. cerevisiae); assay: Fluorescence confocal microscopy of yeast cells; format: cell-based; details: permeabilized with DMSO, 405 nm laser, 100×
Method: S. cerevisiae were stained with 2,7-bis(4-ethynylphenanthrene)-3,6-dimethoxy-9,9-diphenylsilafluorene, referred to as Si phenanthrene, for 1 hour, then imaged on a confocal microscope (FIGS. 35 and 36).
S. cerevisiae were stained with 2,7-bis(4-ethynylbenzaldehyde)-3,6-dimethoxy-9,9-diphenylsilafluorene, referred to as Si benzaldehyde, for 1 hour, then imaged on a confocal microscope (FIG. 37). Again, DMSO was used to permeabilize cells.

[10] = Solvatochromism: emission in different solvents; format: physicochemical
Text: Solvents, like water and dichloromethane, greatly affect the fluorescence energy (i.e., color) of some molecules—this is called solvatochromism. Excited electrons may mobilize across the molecule more easily in these cases. For example, 2,7-bis(4-ethynylbenzaldehyde)-3,6-dimethoxysilafluorene emits green in ethanol, but blue in nonpolar solvents (FIGS. 23-24).

| SMILES | φTX (quantum yield) [2] | φSBDS (quantum yield) [2] | φCTAB (quantum yield) [2] | φCHAPS (quantum yield) [2] | φSDS (quantum yield) [2] | φTris (quantum yield) [2] | φDCM (quantum yield) [4] | solubility in aqueous solution [5] | spectral change when Triton X-100 is added [3] | solubility in DMSO [5] | also measured |
| --- | --- | --- | --- | --- | --- | --- | --- | --- | --- | --- | --- |
| FC(F)(F)c1ccc(C#Cc2cc[c]3c(c2)-c2cc(C#Cc4ccc(C(F)(F)F)cc4)cc[c]2[Ge]3([c]2ccccc2)[c]2ccccc2)cc1 [16Ge] |  |  |  |  |  |  |  |  |  |  | shift of absorbance and emission compared to related 2,7-disubstituted derivatives ([1]; 3,6-disubstituted versus 2,7-disubstituted): significant blue-shift; absorption maximum ([1]; CH2Cl2 solution): 288 nm; emission maximum ([1]; CH2Cl2 solution): 352 nm; emission from the solid-state ([1]; solid-state): 393 nm |
| COc1cc2c(cc1C#Cc1cccc(F)c1)[Si](c1ccccc1)(c1ccccc1)c1cc(C#Cc3cccc(F)c3)c(OC)cc1-2 [3Si] | 1.0 ± 0.04 | 0.49 ± 0.09 | 0.98 | 0.90 ± 0.02 | 0.55 ± 0.03 | 0.34 ± 0.005 | 0.80 | low micromolar concentrations | dramatic blue shifts and emission enhancements |  | emission enhancement upon the addition of detergent/membrane mimics (comparison) [3]: comparable; fluorescence inside cells [6]: observed inside of CHO cells |
| COc1cc2c(cc1C#Cc1ccc(-c3ccccc3)cc1)[Si](c1ccccc1)(c1ccccc1)c1cc(C#Cc3ccc(-c4ccccc4)cc3)c(OC)cc1-2 [7Si] | 0.94 ± 0.05 | 0.73 | 0.93 | 0.32 | 0.88 ± 0.05 | 0.11 ± 0.01 | 0.82 | low micromolar concentrations |  | low millimolar concentrations; also recorded: low micromolar concentrations; also recorded: least soluble |  |
| COc1cc2[c](cc1C#Cc1ccc(Oc3ccccc3)cc1)[Ge]([c]1ccccc1)([c]1ccccc1)[c]1cc(C#Cc3ccc(Oc4ccccc4)cc3)c(OC)cc1-2 [6Ge] |  |  |  |  |  |  |  |  |  |  | solid-state quantum yield [7]: 0.81 |
| COc1cc2c(cc1C#Cc1cccc(F)c1)[Si](c1ccccc1)(c1ccccc1)c1cc(C#Cc3cccc(F)c3)c(OC)cc1-2 [meta-fluoro-silafluorene] |  |  |  |  |  |  |  |  |  |  | emission (in words) ([1]; methylene chloride solution and solid state): strong emission |
| COc1cc2c(cc1C#Cc1ccc(C=O)cc1)[Si](c1ccccc1)(c1ccccc1)c1cc(C#Cc3ccc(C=O)cc3)c(OC)cc1-2 [13Si, 2,7-bis(4-ethynylbenzaldehyde)-3,6-dimethoxy-9,9-diphenylsilafluorene] |  |  |  |  |  |  |  | low micromolar concentrations | dramatic blue shifts and emission enhancements | low millimolar concentrations; also recorded: low micromolar concentrations | emission enhancement upon the addition of detergent/membrane mimics (comparison) [3]: comparable; staining pattern in cells [9]: staining diffuse throughout the cell; emission λmax depending on the solvent ([10]; ethanol, dichloromethane, hexanes): 440-550 nm; emission colour ([10]; in ethanol): green; emission colour ([10]; in nonpolar solvents): blue |
| COc1cc2c(cc1C#Cc1ccc(C)cc1)[Si](c1ccccc1)(c1ccccc1)c1cc(C#Cc3ccc(C)cc3)c(OC)cc1-2 [4Si] | 0.97 ± 0.04 | 0.56 | 0.93 | 0.86 | 0.55 | 0.24 ± 0.01 | 0.89 | low micromolar concentrations | dramatic blue shifts and emission enhancements | low millimolar concentrations; also recorded: low micromolar concentrations |  |
| COc1cc2[c](cc1C#Cc1ccc(C(C)(C)C)cc1)[Ge]([c]1ccccc1)([c]1ccccc1)[c]1cc(C#Cc3ccc(C(C)(C)C)cc3)c(OC)cc1-2 [5Ge] |  |  |  |  |  |  |  |  |  |  | solid-state quantum yield [7]: 0.92 |

Now from value to molecule, other results behind:

| φTX (quantum yield) [2] | φSBDS (quantum yield) [2] | φCTAB (quantum yield) [2] | φCHAPS (quantum yield) [2] | φSDS (quantum yield) [2] | φTris (quantum yield) [2] | φDCM (quantum yield) [4] | solubility in aqueous solution [5] | SMILES | spectral change when Triton X-100 is added [3] | solubility in DMSO [5] | also measured |
| --- | --- | --- | --- | --- | --- | --- | --- | --- | --- | --- | --- |
|  |  |  |  |  |  |  | low micromolar concentrations | COc1cc2c(cc1C#Cc1ccc(-n3c4ccccc4c4ccccc43)cc1)[Si](c1ccccc1)(c1ccccc1)c1cc(C#Cc3ccc(-n4c5ccccc5c5ccccc54)cc3)c(OC)cc1-2 [11Si] |  | low millimolar concentrations; also recorded: low micromolar concentrations |  |
|  |  |  |  |  |  |  | low micromolar concentrations | COc1cc2c(cc1C#Cc1cccc3ccc4ccccc4c13)[Si](c1ccccc1)(c1ccccc1)c1cc(C#Cc3cccc4ccc5ccccc5c34)c(OC)cc1-2 [9Si, 2,7-bis(4-ethynylphenanthrene)-3,6-dimethoxy-9,9-diphenylsilafluorene] | dramatic blue shifts and emission enhancements | low millimolar concentrations; also recorded: low micromolar concentrations | emission enhancement upon the addition of detergent/membrane mimics (comparison) [3]: greatest emission enhancement; solubility in DMSO ([5]; listed as 9.1): least soluble; solubility in aqueous solution ([5]; listed as 2,7-bis-alkynyl(phenanthrene)silafluorene): low micromolar concentration; change of fluorescence emission upon addition of DNA [8]: decrease in fluorescence emission; staining pattern in cells [9]: either localizing onto an intracellular structure or self-aggregating within the cell |
| 0.85 ± 0.06 | 0.47 | 0.99 | 0.93 | 0.30 | 0.094 ± 0.01 | 0.75 | low micromolar concentrations | COc1ccc2cc(C#Cc3c[c]4c(cc3OC)-c3cc(OC)c(C#Cc5ccc6cc(OC)ccc6c5)c[c]3[Ge]4([c]3ccccc3)[c]3ccccc3)ccc2c1 [8Ge] |  | low millimolar concentrations; also recorded: low micromolar concentrations |  |
